Drawing on a melting point compilation (Tetko et al.; mined from patent text by program, amines drawn as free bases though some values may be those of a salt), this text covers melting point for 63 compounds.

Turning to `Cc1cc(N(C)C)ccc1C=O`, the melting point fell in the range of 66 to 67 °C. Next, `CN(C)c1ccc2nnc(-c3ncc([N+](=O)[O-])n3C)n2n1`: 233 to 236 °C. Next, `CCn1c(N)c(C(=O)NC)c(=O)c2ccc(C#CC(C)(C)OCC(N)=O)nc21`: 204 °C; `NC(=O)CCN1CCC(CNc2ccc(Cl)cc2C(=O)Nc2ccc(Cl)cn2)CC1`: 193 to 196 °C; `Fc1ccc(CNc2nc(OCC(F)(F)F)nc(Oc3cccc(C(F)(F)F)c3)n2)cc1`: 107 to 109 °C.

The compound `Cc1nc(-c2ccc(C(C)(C)C)cc2)sc1C(=O)O` showed a melting point of 190 to 193 °C. Next, `Cc1c(C(=O)CCl)c(C)n(C)c1C(=O)c1ccc(Cl)cc1Cl`: 100 to 102 °C; `CCOC(=O)c1[nH]nnc1Nc1ccc(C)cc1`: 129 to 130 °C. Consider `O=C(Nc1csc(-c2cccnc2)n1)c1nnn[nH]1`, for which the melting point was 263 to 265 °C. `CN(C)c1ccccc1CS(=O)c1nccn1-c1ccc(N)cn1` (stereo not drawn) showed a melting point of 140 to 143 °C. To `COC(=O)[C@H](C)OC(=O)c1cc(-n2c(=O)cc(C(F)(F)F)n(C)c2=O)ccc1Cl` belongs 59 to 60 °C. To `CCCc1cc2cc(NC(=O)OCC)ccc2o1` belongs 69 to 70 °C.

`CS(=O)(=O)Nc1ccc(C(N)=NO)cc1Oc1ccc(F)cc1F` returned a melting point of 174 to 175 °C.

Turning to `CCCCCCCCCCCCCCCC(=O)n1cc(F)c(=O)[nH]c1=O`, the melting point turned out to be 98 °C.

For the compound `Cc1nc2c(C=O)cccn2c1C`, the melting point fell in the range of 145 to 148 °C. Next, `Cn1nc(-c2nc(C#CCO)c(Cl)cc2F)c(Cl)c1OC(F)F`: 92 to 94 °C; `CN(C)c1nc(NCc2ccc(NC(=O)c3ccc(F)cc3)cc2)c2ccc(C#N)cc2n1`: 150 °C; `CCn1cc(-c2c(-c3ccccc3)nn3ccncc23)ccc1=O`: 192 to 193 °C. `CC(C)(CCCCCC(=O)CCCCCC(C)(C)C(=O)O)C(=O)O`: the melting point was 74.5 to 76 °C.

With `COc1ccc(-c2ncn(Cc3ccccc3)c2-c2ccc(OC)cc2)cc1`, the melting point lay within 165 to 167 °C. Next, `CC(CC1=Nc2cc(Cl)ccc2S(=O)(=O)N1)CC(C)(C)C` (stereo not drawn): 243 to 244 °C; `CCOC(=O)COc1ccc(NC(=O)c2sc(NC(=N)N)nc2C)cc1`: 223 °C; `O=C1Nc2cccnc2Nc2ccc(Br)cc21`: 187 to 188 °C.

The compound `COc1ccc(Cn2nc(CO)c3cc(OC)c(OC)cc32)cc1OC` returned a melting point of 187 °C. `O=C(OCC1c2ccccc2-c2ccccc21)N1Cc2cccn2Cc2ccccc21` came in with a melting point of 141 to 142 °C. Next, `O=C(O)CCCCCCCNS(=O)(=O)c1ccc(Br)cc1`: 115 to 116 °C.

The compound `C=CCC(C(=O)OC)(C(=O)OC)C(Cc1ccccc1N)c1ccc(OC)cc1` (stereo not drawn) gave a melting point of 117 to 118 °C. The compound `Cc1ccc(S(=O)(=O)Oc2ccc(Cl)c3c2C(=O)c2cnccc2C3=O)cc1` returned a melting point of 193 to 195 °C. `O=C(O)CCCCCCCCCC=Cc1ccccc1` displayed a melting point of 27 to 27.5 °C.

`CCOC(=O)c1cn(C)c2nc3cc(N4CCNC(c5ccco5)C4)c(F)cc3cc2c1=O` (racemic): the melting point fell in the range of 198 to 200 °C. To `CC(C)Oc1cc(N2NC(C)(C)NC2=O)c(Cl)cc1Cl` belongs 162 to 163 °C; to `CCOC(=O)c1cn(C2CC2)c2c(C)c(N3CCN(C)CC3)c(F)c(C)c2c1=O`, 146 to 147 °C. Next, `CCCC(CCNC(=O)C(C#N)=Cc1ccc(O)c(O)c1)NC(=O)C(C#N)=Cc1ccc(O)c(O)c1` (stereo not drawn): 263 °C; `O=C(CCl)Nc1ccc2c(c1NC(=O)c1ccc(C(F)(F)F)cc1)C(=O)c1ccccc1C2=O`: 203 to 204 °C.

Consider `N#C/C(=C\c1ccc(O)c(O)c1)C(=O)NCCCCNC(=O)/C(C#N)=C/c1ccc(O)c(O)c1`, for which the melting point was 283 °C. Next, `CN1CCC(c2c[nH]c3ccc(CCS(N)(=O)=O)cc23)CC1`: greater than 95 °C. Next, `C=CCNC(=S)NC(=O)c1ccccc1`: 68 to 69 °C; `COC(=O)c1sc2cncc(Oc3ccc(Cl)cc3)c2c1N`: 194 to 196 °C; `CCOc1cc(-c2cc(C(F)F)n3ncc(C(=O)Nc4cccc(S(=O)(=O)NC5CC5)c4)c3n2)ccc1C(F)(F)F`: 213 °C.

The compound `CCOC(=O)c1ccc(N2CCCC2=O)cc1` registered a melting point of 94 to 95 °C. To `COc1ccccc1N1CCN(Cc2ccc(CC(=O)O)cc2)CC1` belongs 87 to 90 °C. Next, `CN(C)CCCC1(O)c2ccccc2OC12CCCCCC2` (stereo not drawn): 96 to 98.5 °C. As to `O=C(c1ccc(-n2ccnc2)cc1)N1CCN(S(=O)(=O)c2cc3cc(Cl)ccc3[nH]2)CC1`, the melting point lay in the range of 155 to 165 °C.

`Cc1csc(N2CCN(Cc3ccc(C(F)(F)F)cc3)C2=O)n1` displayed a melting point of 102 to 103 °C.

The compound `Cc1csc2ccc(C3CCN(Cl)CC3)cc12` gave a melting point of 57 to 61.5 °C. Next, `COc1cc(C(N)=O)c([N+](=O)[O-])cc1OCc1ccccc1`: 222 to 224 °C; `O=c1[nH]c2c(C(F)(F)F)cccc2c(=O)n1CCCN1CC=C(c2ccc(Cl)cc2)CC1`: 199 to 201 °C. To `CCCNC(=O)c1nc2n(c1C)CCc1ccccc1C2OC1CCN(C)CC1` (stereo not drawn) belongs 60 °C. Next, `O=C1N(Cc2ccc(NC3CCNC3)cc2)c2ccccc2C12COc1cc3c(cc12)OCO3` (stereo not drawn): 118 to 121 °C; `O=C1c2ccccc2-n2cnc(CO)c2[C@@H]2CCCN12`: 212 to 214 °C; `O=C(O)C=Cc1ccccc1NC(=O)c1ccc(OCCCCc2ccccc2)cc1`: 129 to 131 °C. Take `CCOC(=O)c1c(O)ccc(Cc2c[nH]cn2)c1C`: the melting point lay in the range of 42 to 45 °C.

As for `COc1ccc2nc(COc3ccc(F)c(C(N)=O)c3F)sc2c1`, the melting point was in the range of 190 to 192 °C. To `COc1cc2c(Nc3cc(O)c(C)cc3F)ncnc2cc1O` belongs 276 to 278 °C; to `CCCCC(Oc1ccccc1)C(=O)OC1CC(O)C=C2C=CC(C)C(CCC3CC(O)CC(=O)O3)C21` (mixture of isomers), 139 to 141 °C; to `Cn1c(=O)c2c(c3ccccc31)c1cc(Cl)ccc1n2CCN`, 222 to 224 °C. Compound `CC1(C)OCC(C(O)CNC(=O)CS(=O)(=O)Nc2ccc(F)c(C(F)(F)F)c2)O1` (stereo not drawn) had a melting point of 144 to 146 °C.

Compound `COC(=O)c1ccc(OC)c2c1OCCO2` displayed a melting point of 84 °C. Next, `CCOC(OCC)c1cc(=O)[nH]c(N)n1`: 198 to 203 °C; `Cc1ccc(C)c(CN(c2ncnc3c2cnn3C2CCCO2)C2CCCC2)c1` (stereo not drawn): 173 to 174 °C; `CS(=O)(=O)Nc1ccccc1OCCCN1CCC(OC(c2ccccc2)c2ccsc2)CC1` (stereo not drawn): 79.5 to 82 °C. Consider `C[C@H](C#Cc1scc(Cc2ccc(F)cc2)c1Cc1ccc(F)cc1)N(O)C(N)=O`, for which the melting point was 128 to 130 °C. To `CC(C)(C)OC(=O)COCCCCCCn1nc(-c2ccccc2)c(-c2ccccc2)c1-c1ccccc1` belongs 69 to 72 °C.
